In this experiment the target is KCNQ1 R249A (Homo sapiens, UniProt P51787, R249A). The experiment can be described thus: Two-electrode voltage clamp of mutant KCNQ1 in Xenopus oocytes. The class given is cell-based. The source says: In a previous study, mutation of residues in the predicted PIP2-binding site reduced KCNQ1 currents. CP1 modifies voltage-dependent activation of KCNQ1 channels by shifting the voltage dependence of channel opening, measured as the voltage dependence of the conductance (G–V) relationship, to more negative voltages (Fig. 1c) among other characteristics (see below). We made mutations to the residues around the CP1-interacting pocket as indicated by molecular docking (Fig. 1b), and examined the effects of the mutations on the CP1-induced shift of the G–V relationship. The mutations of the KCNQ1 residues that interact with CP1 in docking simulations reduced the shift of the G–V relationship (Fig. 1c, d), supporting the interaction of these residues with CP1.
Complementary DNA (cDNA) encoding human KCNQ1 (UniProtKB/Swiss‐Prot under accession no. P51787), KCNQ2 (O43526), KCNQ3 (O43525), KCNE1 (P15382), Kir1.1 (P48048), hERG (Q12809), KV4.2 (Q63881), NaV1.5 (Q14524), NaV β1 (Q07699), CaV1.2 (Q13936), CaV β1a (Q02641), CaV α2/δ1 (P54289), and HCN4 (Q9Y3Q4) were subcloned into oocyte expression vectors, respectively. Site-directed mutations of the KCNQ1 channel were all produced by overlap extension polymerase chain reaction (PCR) with high-fidelity Pfu polymerase (Stratagene, CA). The presence of the desired mutation was verified by sequencing the PCR-amplified regions. All the primer sequences used in this study are available in Supplementary Table 1. The complementary RNA (cRNA) of all these channels and mutations was transcribed in vitro with the T3, T7, or SP6 polymerase mMessage mMachine kit (Invitrogen, Thermo Fisher Scientific, MO).
The use of Xenopus laevis to obtain oocytes was approved by the Washington University Animal Studies Committee (protocol #20190030). Oocytes were manually dispersed and digested with collagenase (0.5 mg/ml, Sigma-Aldrich, Saint Louis, MO) to remove the follicle cell layer. Stage V or VI oocytes were selected and injected with cRNAs (9.2 ng) of channel or mutations. Especially, to characterize IKs, a mix of cRNAs at a molar ratio 4:1 (KCNQ1:KCNE1) was injected. For KCNQ2/KCNQ3, the molar ratio was 1:1 (KCNQ2:KCNQ3). For sodium channels, a 3:1 molar ratio (β1:NaV1.5) and for calcium channels a weight ratio 1:1:1 (β1:α2/δ1:CaV1.2) was injected, respectively. Injected oocytes were incubated in ND96 solution containing (in mM) 96 NaCl, 2 KCl, 1.8 CaCl2, 1 MgCl2, and 5 HEPES, pH 7.6, supplemented with 2.5 mM Na pyruvate and 1% penicillin–streptomycin, at 18 °C for 3–7 days before recording.
The whole-oocyte ionic currents were recorded with a GeneClamp 500B amplifier (Axon Instruments, CA) or iTEV90 amplifier (HEKA, Germany) and then sampled at 1 kHz and low-pass-filtered at 2 kHz. The Patchmaster software (HEKA, Germany) was used to acquire data. The Kir1.1 current was recorded with a high K^+ bath solution containing (in mM) 96 KCl, 4 NaCl, 1 CaCl2, 2 MgCl2, and 10 HEPES, pH 7.3–7.4. The HCN4 current was recorded in ND66 solution containing (in mM) 66 NaCl, 32 KCl, 1.8 CaCl2, 1 MgCl2, and 5 HEPES, pH 7.6. All the other potassium channels were recorded in ND96 solution. The currents of CaV1.2 channel were recorded in 40 mM Ba^2+ bath solution containing (in mM) 40 Ba(OH)2, 50 TEA-OH, 2 KOH, and 5 HEPES, adjusted to pH 7.4 with methanesulfonic acid. CP1 (DISODIUM 5-BROMO-2-[9-CHLORO-3-(SULFONATOOXY) NAPHTHO [1,2-B] THIEN-2-YL]-1H-INDOL-3-YL SULFATE, Sigma-Aldrich, MO) and Chromanol 293B (Sigma-Aldrich, MO) were dissolved in bath solutions. All the chemicals were purchased from Sigma-Aldrich. To measure the I–V relations of the Kir1.1 channel, the test voltage was set from −100 to +60 mV for 1 s with 20-mV increments. The test pulses were stepped from a holding potential of 0 mV and then stepped back to 0 mV. The HCN4 currents were recorded by a test pulse between −30 and −140 mV in 10-mV step from a holding potential of −30 mV. […]
Background: Two-electrode voltage clamp holds a large cell at a set potential and records current.

“And” between values parts separate entries of the source, which are not always exact repeats. Equal entries are not always repeated.

In the case of `O=S(=O)([O-])Oc1c(-c2sc3c(ccc4cccc(Cl)c43)c2OS(=O)(=O)[O-])[nH]c2ccc(Br)cc12.[Na+].[Na+]` [CP1, DISODIUM 5-BROMO-2-[9-CHLORO-3-(SULFONATOOXY) NAPHTHO [1,2-B] THIEN-2-YL]-1H-INDOL-3-YL SULFATE], the G/Gmax by setting is: (10 µM CP1, 0 mV) 0.9092; (10 µM CP1, 10 mV) 0.9509; (10 µM CP1, 20 mV) 0.9864; (10 µM CP1, 30 mV) 1.0000; (10 µM CP1, -10 mV) 0.8439; (10 µM CP1, -20 mV) 0.7664. Also, the G/Gmax is recorded as 0.6715 (10 µM CP1, -30 mV); 0.5716 (10 µM CP1, -40 mV); 0.4548 (10 µM CP1, -50 mV); 0.3517 (10 µM CP1, -60 mV); 0.2667 (10 µM CP1, -70 mV); 0.1987 (10 µM CP1, -80 mV). In addition, the G/Gmax (10 µM CP1, -90 mV) stood at 0.1385; the G/Gmax (10 µM CP1, -100 mV) is 0.0990; the G/Gmax (10 µM CP1, -110 mV) stood at 0.0539; the G/Gmax (10 µM CP1, -120 mV) is 0.0000. The “∆V1/2” value (10 µM CP1, individual oocytes) is 32.4733 mV and 36.93 mV and 39.3292 mV and 47.5115 mV and 29.4037 mV.

The values are drawn from paper PMC7367283, “A PIP2 substitute mediates voltage sensor-pore coupling in KCNQ activation” (Communications Biology, 2020).
